# Laboratory results as given in patent US20180148418A1, “AMIDO-SUBSTITUTED CYCLOHEXANE DERIVATIVES” (Bayer Pharma Aktiengesellschaft, priority 2015, published 2018).
# Legend:
# [1] = molecular target: T1, TNKS2 (Homo sapiens, UniProt Q9H2K2); assay: TNKS2 Assay B (auto-parsylation, [3H]-NAD+ SPA); type: biochemical; details: 6 nM TNKS2, auto-parsylation, over night at room temperature
# T1 construct: purchased BPS Bioscience, San Diego, USA 80572 (TNKS2 Histone Ribosylation Assay Kit)
# T1 sequence (Q9H2K2 1-1166): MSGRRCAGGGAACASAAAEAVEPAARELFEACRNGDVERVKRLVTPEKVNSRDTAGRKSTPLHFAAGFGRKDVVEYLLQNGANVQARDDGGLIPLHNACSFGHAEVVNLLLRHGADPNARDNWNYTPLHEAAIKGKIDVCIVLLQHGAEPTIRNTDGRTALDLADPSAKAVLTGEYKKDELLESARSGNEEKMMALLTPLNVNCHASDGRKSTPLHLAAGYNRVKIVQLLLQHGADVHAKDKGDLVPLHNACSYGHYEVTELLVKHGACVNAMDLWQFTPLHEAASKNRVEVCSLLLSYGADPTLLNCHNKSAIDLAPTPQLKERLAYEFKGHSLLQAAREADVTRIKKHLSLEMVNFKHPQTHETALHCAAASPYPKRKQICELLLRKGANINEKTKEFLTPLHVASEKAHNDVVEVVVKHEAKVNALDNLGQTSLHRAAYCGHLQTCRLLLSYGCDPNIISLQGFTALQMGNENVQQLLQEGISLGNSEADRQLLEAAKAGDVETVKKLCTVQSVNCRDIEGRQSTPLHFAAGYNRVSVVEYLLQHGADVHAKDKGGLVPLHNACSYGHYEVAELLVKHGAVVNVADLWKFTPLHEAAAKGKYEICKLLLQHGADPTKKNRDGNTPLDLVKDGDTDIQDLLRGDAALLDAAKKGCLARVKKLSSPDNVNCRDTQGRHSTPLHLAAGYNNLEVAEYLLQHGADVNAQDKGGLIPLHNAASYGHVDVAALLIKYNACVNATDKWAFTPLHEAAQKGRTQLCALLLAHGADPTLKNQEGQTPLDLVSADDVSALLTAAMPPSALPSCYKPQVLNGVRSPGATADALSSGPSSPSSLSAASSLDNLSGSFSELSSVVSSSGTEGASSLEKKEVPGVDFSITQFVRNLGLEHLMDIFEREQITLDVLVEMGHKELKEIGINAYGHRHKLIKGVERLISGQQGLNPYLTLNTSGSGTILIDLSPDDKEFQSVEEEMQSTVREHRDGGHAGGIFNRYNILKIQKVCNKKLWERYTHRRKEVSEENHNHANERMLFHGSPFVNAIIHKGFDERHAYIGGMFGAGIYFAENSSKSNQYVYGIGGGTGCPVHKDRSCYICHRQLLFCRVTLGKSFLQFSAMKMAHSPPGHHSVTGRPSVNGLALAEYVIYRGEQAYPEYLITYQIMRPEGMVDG
# Description: The potency of selected compounds according to the invention was assessed applying a modified in vitro inhibition assay. Here, the TNKS2 catalyzed NAD^+-dependent ribosylation of the enzyme itself (auto-parsylation) was detected using [^3H]-NAD^+ as substrate and applying the scintillation proximity assay (SPA) method to detect tritium-labeled, parsylated TNKS2. The intensity of the readout signal is proportional to the incorporated [^3H]-NAD^+. Inhibition of TNKS2 leads to a decreased incorporation of [^3H]-NAD^+ and consequently to a lower readout signal intensity. The concentration of a test compound which inhibits the enzyme activity by 50% (corresponds to half of the normed readout signal intensity) is reported as IC50.
# Protocol Auto-Parsylation Assay
# The assay was conducted in a 96 well MTP format with the identical TNKS2 enzyme sample and NAD^+ sample as in the histone ribosylation assay with the following modifications: TNKS2 enzyme sample was diluted with a modified assay buffer (50 mM MES pH 7.0, 1 mM DTT, 0.01% Triton X-100) to a final concentration of 6 nM TNKS2 and 10×NAD^+ solution was diluted with the modified assay buffer (s. above) to a final 0.445×NAD^+ solution doped with 100 Bq/μl [^3H]-NAD^+[Catalog #NET443H050UC, Perkin Elmer, Waltham, Mass., USA]. Substrate solution (10 μl) was incubated with different test compound concentrations (2.5 μl in 10% DMSO in modified assay buffer) or control (2.5 μl 10% DMSO in modified assay buffer only) and enzyme (10 μl) over night at room temperature. Incorporated tritium was measured after addition of 50 ul SPA beads (1 mg/ml) [Catalog #RPNQ0095 20 mg/ml, Perkin Elmer, Waltham, Mass., USA; diluted 1:10 with Dulbecco's phosphate buffered saline, PBS Catalog #D8537, Sigma-Aldrich, Steinheim, Germany] and detection of the photon emission with a beta count plate reader [Wallac MicroBeta®, Perkin Elmer, Waltham, Mass., USA].
# [2] = tested on: wildtype Wnt signaling cascade; assay: HEK293 TOP assay (Super TopFlash luciferase reporter, Wnt-3a stimulated); type: cell-based; details: Homo sapiens, HEK293, 16 h, HEK293 TOP reporter cells, Wnt3a at EC50, 16 hours
# Text: 7.1 Measurement of the Inhibitory Activity of Selected Compounds on the Wildtype Wnt Signaling Cascade: HEK293 TOP/FOP Assay
# In order to discover and characterize small molecules which inhibit the wildtype Wnt pathway, a cellular reporter assay was employed. The corresponding assay cell was generated by transfection of the mammalian cell line HEK293 (ATCC, #CRL-1573) with the Super TopFlash vector (Morin, Science 275, 1997, 1787-1790; Molenaar et al., Cell 86 (3), 1996, 391-399). The HEK293 cell line is cultivated at 37° C. and 5% CO2 in DMEM (Life Technologies, #41965-039), supplemented with 2 mM glutamine, 20 mM HEPES, 1.4 mM pyruvate, 0.15% Na-bicarbonate and 10% foetal bovine serum (GIBCO, #10270). Stable transfectants were generated by selection with 300 μg/ml Hygromycin.
# (§1) In preparation of the assay, the two cell lines were plated 24 h before beginning the test at 10000 cells per well in a 384 micro titre plate (MTP) in 30 μl growth medium. […] The recombinant human Wnt-3a was thereby applied between 2500 and 5 ng/ml in two-fold dilution steps.
# (§2) Selective inhibitory activity for small molecules on the wildtype Wnt pathway was determined after parallel incubation of both (TOP and FOP) HEK293 reporter cell lines with a compound dilution series from 50 μM to 15 nM in steps of 3.16-fold dilutions in CAFTY buffer (130 mM sodium chloride, 5 mM potassium chloride, 20 mM HEPES, 1 mM magnesium chloride, 5 mM sodium bicarbonate, pH 7.4) containing 2 mM Ca^2+ and 0.01% BSA.
# (§3) The compounds were thereby serially prediluted in 100% DMSO and thereafter 50 fold into the CAFTY compound dilution buffer (described above).
# [3] = tested on: HEK293 cells cotransfected with the FOP control vector; assay: HEK293 FOP assay (control reporter with non-functional TCF elements); type: cell-based; details: Homo sapiens, 16 hours
# Description: In a parallel approach, HEK293 cells were cotransfected with the FOP control vector and pcDNA3. The FOP vector is identical to the TOP construct, but it contains instead of functional TCF elements a randomized, non-functional sequence. For this transfection a stable transfected cell line was generated as well, based on selection with Geneticin (1 mg/ml).
# as §1, §2, §3
SMILES,IC50 [1] [nM],IC50 [2] [nM],IC50 [3] [nM]
"CCN(c1ccccc1Cl)C(=O)[C@H]1CC[C@H](NC(=O)c2[nH]cnc2C(=O)NC)CC1 [Example 158, N^5-{trans-4-[(2-chlorophenyl)(ethyl)carbamoyl]cyclohexyl}-N^4-methyl-1H-imidazole-4,5-dicarboxamide]",150,34,≥ 50000
CNC(=O)c1nc[nH]c1C(=O)N[C@H]1CC[C@@]2(CCCN(c3ccc(F)cc3Cl)C2=O)CC1 [Example 159],130,14,≥ 50000
"CNC(=O)c1nc[nH]c1C(=O)N[C@H]1CC[C@H](C(=O)Nc2c(Cl)cc(F)cc2C#N)CC1 [Example 174, N^5-{trans-4-[(2-chloro-6-cyano-4-fluorophenyl)carbamoyl]cyclohexyl}-N^4-methyl-1H-imidazole-4,5-dicarboxamide]",240,79,≥ 50000
"COC1CN(C(=O)c2nc[nH]c2C(=O)N[C@H]2CC[C@@]3(CCN(c4ccc(F)cc4Cl)C3=O)CC2)C1 [Example 188, N-[(trans)-2-(2-chloro-4-fluorophenyl)-1-oxo-2-azaspiro[4.5]dec-8-yl]-4-[(3-methoxyazetidin-1-yl)carbonyl]-1H-imidazole-5-carboxamide]",2.7,0.68,≥ 50000
"O=C(N[C@H]1CC[C@@]2(CCN(c3ccc(F)cc3Cl)C2=O)CC1)c1[nH]cnc1C(=O)N1CC(F)(F)C1 [Example 189, N-[(trans)-2-(2-chloro-4-fluorophenyl)-1-oxo-2-azaspiro[4.5]dec-8-yl]-4-[(3,3-difluoroazetidin-1-yl)carbonyl]-1H-imidazole-5-carboxamide]",5.6,0.3,9800
"O=C(N[C@H]1CC[C@@]2(CCN(c3ccc(F)cc3Cl)C2=O)CC1)c1[nH]cnc1C(=O)N1CC(C(F)F)C1 [Example 190, N-[(trans)-2-(2-chloro-4-fluorophenyl)-1-oxo-2-azaspiro[4.5]dec-8-yl]-4-{[3-(difluoromethyl)azetidin-1-yl]carbonyl}-1H-imidazole-5-carboxamide]",2.8,0.06,12000
"O=C(N[C@H]1CC[C@@]2(CCN(c3ccc(F)cc3Cl)C2=O)CC1)c1[nH]cnc1C(=O)N1CC(O)C1 [Example 192, N-[(trans)-2-(2-chloro-4-fluorophenyl)-1-oxo-2-azaspiro[4.5]dec-8-yl]-4-[(3-hydroxyazetidin-1-yl)carbonyl]-1H-imidazole-5-carboxamide]",5.3,0.21,≥ 50000
"O=C(N[C@H]1CC[C@@]2(CCN(c3ccc(F)cc3Cl)C2=O)CC1)c1[nH]cnc1C(=O)N1CC(OC(F)F)C1 [Example 193, N-[(trans)-2-(2-chloro-4-fluorophenyl)-1-oxo-2-azaspiro[4.5]dec-8-yl]-4-{[3-(difluoromethoxy)azetidin-1-yl]carbonyl}-1H-imidazole-5-carboxamide]",5,0.6,16000
"O=C(N[C@H]1CC[C@@]2(CCN(c3ccc(F)cc3Cl)C2=O)CC1)c1[nH]cnc1C(=O)N1CC2(COC2)C1 [Example 194, N-[(trans)-2-(2-chloro-4-fluorophenyl)-1-oxo-2-azaspiro[4.5]dec-8-yl]-4-(2-oxa-6-azaspiro[3.3]hept-6-ylcarbonyl)-1H-imidazole-5-carboxamide]",4.8,1.5,≥ 50000
"Cc1cc(C2CC2)n2ncc(C(=O)N[C@H]3CC[C@H](C(=O)Nc4ccc(F)cc4Cl)CC3)c2n1 [Example 204, N-{trans-4-[(2-chloro-4-fluorophenyl)carbamoyl]cyclohexyl}-7-cyclopropyl-5-methylpyrazolo[1,5-a]pyrimidine-3-carboxamide]",160,48,≥ 50000
"Cc1cc(C)n2ncc(C(=O)N[C@H]3CC[C@]4(CCN(c5ccc(F)cc5Cl)C4=O)CC3)c2n1 [Example 207, N-[(cis)-2-(2-chloro-4-fluorophenyl)-1-oxo-2-azaspiro[4.5]dec-8-yl]-5,7-dimethylpyrazolo[1,5-a]pyrimidine-3-carboxamide]",> 10000,3500,≥ 50000
"COCc1cc(C)nc2c(C(=O)N[C@H]3CC[C@@]4(CCN(c5ccc(F)cc5Cl)C4=O)CC3)cnn12 [Example 219, N-[(trans)-2-(2-chloro-4-fluorophenyl)-1-oxo-2-azaspiro[4.5]dec-8-yl]-7-(methoxymethyl)-5-methylpyrazolo[1,5-a]pyrimidine-3-carboxamide]",7.5,5.6,≥ 500
"COCc1cc(C)n2ncc(C(=O)N[C@H]3CC[C@@]4(CCN(c5ccc(F)cc5Cl)C4=O)CC3)c2n1 [Example 220, N-[(trans)-2-(2-chloro-4-fluorophenyl)-1-oxo-2-azaspiro[4.5]dec-8-yl]-5-(methoxymethyl)-7-methylpyrazolo[1,5-a]pyrimidine-3-carboxamide]",10,2.6,38000
"O=C(N[C@H]1CC[C@@]2(CCN(c3ccc(F)cc3Cl)C2=O)CC1)c1cnc2ccccn12 [Example 223, N-[(trans)-2-(2-chloro-4-fluorophenyl)-1-oxo-2-azaspiro[4.5]dec-8-yl]imidazo[1,2-a]pyridine-3-carboxamide]",1200,270,≥ 50000
